The results in this text go back to the NIST ThermoML archive (doi:10.1021/je700632z).

Numbers after ± are expanded uncertainties.

The conditions of the series: 101.33 kPa, Liquid, Capillary tube (Ostwald / Ubbelohde) method.

As for `Fc1c(F)c(F)c(F)c(F)c1F` [hexafluorobenzene], the kinematic viscosity (298.15 K) was determined as 5.81e-07 ± 9e-09 m2/s; the kinematic viscosity (303.15 K) is 5.35e-07 ± 1.1e-08 m2/s; the kinematic viscosity (308.15 K) was 4.91e-07 ± 4e-09 m2/s; the kinematic viscosity (313.15 K) turned out to be 4.5e-07 ± 7e-09 m2/s; the kinematic viscosity (318.15 K) came out at 4.23e-07 ± 9e-09 m2/s.
For `FC(F)(F)C(F)(F)C(F)(F)C(F)(F)C(F)(F)C(F)(F)C(F)(F)C(F)(F)F` [octadecafluorooctane], the kinematic viscosity runs as follows: (298.15 K) 7.11e-07 ± 7.4e-09 m2/s; (303.15 K) 6.56e-07 ± 6.9e-09 m2/s; (308.15 K) 6.08e-07 ± 6.4e-09 m2/s; (313.15 K) 5.65e-07 ± 6e-09 m2/s; (318.15 K) 5.27e-07 ± 5.6e-09 m2/s.
Take `FC(F)(F)C(F)(F)C(F)(F)C(F)(F)C(F)(F)C(F)(F)C(F)(F)C(F)(F)C(F)(F)F` [eicosafluorononane]: the kinematic viscosity is, setting by setting: (298.15 K) 1e-06 ± 1.2e-08 m2/s; (303.15 K) 9.11e-07 ± 9e-09 m2/s; (308.15 K) 8.33e-07 ± 8e-09 m2/s; (313.15 K) 7.73e-07 ± 6e-09 m2/s; (318.15 K) 7.14e-07 ± 7e-09 m2/s.
Consider `FC(F)(F)C(F)(F)C(F)(F)C(F)(F)C(F)(F)C(F)(F)F` [perfluorohexane], for which the kinematic viscosity (298.15 K) was 4.17e-07 ± 5e-09 m2/s; the kinematic viscosity (303.15 K) was 3.97e-07 ± 9e-09 m2/s; the kinematic viscosity (308.15 K) stood at 3.72e-07 ± 4e-09 m2/s; the kinematic viscosity (313.15 K) is 3.57e-07 ± 5e-09 m2/s; the kinematic viscosity (318.15 K) was found to be 3.43e-07 ± 4e-09 m2/s.
On to `FC(F)(F)C(F)(F)C(F)(F)C(F)(F)C(F)(F)C(F)(F)C(F)(F)C(F)(F)Br` [1-bromoperfluorooctane], for which the kinematic viscosity was determined as 1.065e-06 ± 1e-08 m2/s (298.15 K); 9.96e-07 ± 1e-08 m2/s (303.15 K); 9.05e-07 ± 1.1e-08 m2/s (308.15 K); 8.37e-07 ± 6e-09 m2/s (313.15 K); 7.51e-07 ± 1.1e-08 m2/s (318.15 K).
Consider `FC1(F)C(F)(F)C(F)(F)C2(F)C(F)(F)C(F)(F)C(F)(F)C(F)(F)C2(F)C1(F)F` (stereo not given) [perfluorodecalin], for which the kinematic viscosity by setting is: (298.15 K) 2.803e-06 ± 1.6e-08 m2/s; (303.15 K) 2.448e-06 ± 1.4e-08 m2/s; (308.15 K) 2.159e-06 ± 1.4e-08 m2/s; (313.15 K) 1.917e-06 ± 1.1e-08 m2/s; (318.15 K) 1.709e-06 ± 1e-08 m2/s.
The matching figures for `Fc1c(F)c(F)c(C(F)(F)F)c(F)c1F` [octafluorotoluene]: 5.88e-07 ± 4e-09 m2/s, 5.51e-07 ± 5e-09 m2/s, 5.16e-07 ± 4e-09 m2/s, 4.84e-07 ± 4e-09 m2/s and 4.57e-07 ± 4e-09 m2/s.
With `FC(F)(F)C(F)(F)C(F)(F)C(F)(F)C(F)(F)C(F)(F)C(F)(F)F` [hexadecafluoroheptane], the kinematic viscosity (298.15 K) was found to be 5.43e-07 ± 4e-09 m2/s; the kinematic viscosity (303.15 K) is 5.12e-07 ± 9e-09 m2/s; the kinematic viscosity (308.15 K) amounted to 4.82e-07 ± 1.1e-08 m2/s; the kinematic viscosity (313.15 K) came to 4.48e-07 ± 7e-09 m2/s; the kinematic viscosity (318.15 K) was 4.34e-07 ± 7e-09 m2/s.
Regarding `FC(F)(F)C1(F)C(F)(F)C(F)(F)C(F)(F)C(F)(F)C1(F)F` [perfluoro(methylcyclohexane)], the kinematic viscosity runs as follows: (298.15 K) 9.31e-07 ± 8e-09 m2/s; (303.15 K) 8.43e-07 ± 9e-09 m2/s; (308.15 K) 7.72e-07 ± 8e-09 m2/s; (313.15 K) 7.22e-07 ± 9e-09 m2/s; (318.15 K) 6.84e-07 ± 9e-09 m2/s.
